Laboratory results reported in patent US8192962B2, “Processes for detecting toxic substances” (Daikin Industries, Ltd., priority 2001, dated 2012).

System: Energy system protein genes
Assay: DNA chip mRNA expression in yeast, energy system protein genes (Table 4)
Assay type: cell-based, Saccharomyces cerevisiae S288C
Method in brief: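 Measured as treated-to-untreated fluorescence ratio on a full-genome yeast DNA chip. Cells (S288C, YPD, 25° C.) were exposed in log phase for two hours to one chemical, dosed to curb growth without killing.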

Oc1cc(Cl)c(Cl)cc1Cl [(6), 2,4,5-trichlorophenol]
The level of expressed mRNA in the presence of chemical substance/The level of expressed mRNA in the absence of chemical substance (yeast gene YJR048W): 0.5 | The level of expressed mRNA in the presence of chemical substance/The level of expressed mRNA in the absence of chemical substance (yeast gene YJR121W, cells incubated two hours with the chemical substance): 1.5 | The level of expressed mRNA in the presence of chemical substance/The level of expressed mRNA in the absence of chemical substance (yeast gene YJR155W): 1.4 | The level of expressed mRNA in the presence of chemical substance/The level of expressed mRNA in the absence of chemical substance (yeast gene YKL016C, cells incubated two hours with the chemical substance): 0.8 | The level of expressed mRNA in the presence of chemical substance/The level of expressed mRNA in the absence of chemical substance (yeast gene YKL035W): 1.2 | The level of expressed mRNA in the presence of chemical substance/The level of expressed mRNA in the absence of chemical substance (yeast gene YKL060C, cells incubated two hours with the chemical substance): 1.3 | The level of expressed mRNA in the presence of chemical substance/The level of expressed mRNA in the absence of chemical substance (yeast gene YKL141W, cells incubated two hours with the chemical substance): 1.2 | The level of expressed mRNA in the presence of chemical substance/The level of expressed mRNA in the absence of chemical substance (yeast gene YKL148C, cells incubated two hours with the chemical substance): 0.5 | The level of expressed mRNA in the presence of chemical substance/The level of expressed mRNA in the absence of chemical substance (yeast gene YKL152C): 1.6 | The level of expressed mRNA in the presence of chemical substance/The level of expressed mRNA in the absence of chemical substance (yeast gene YKR009C, cells incubated two hours with the chemical substance): 1.8 | The level of expressed mRNA in the presence of chemical substance/The level of expressed mRNA in the absence of chemical substance (yeast gene YKR058W, cells incubated two hours with the chemical substance, 25° C., YPD medium): 1.4 | The level of expressed mRNA in the presence of chemical substance/The level of expressed mRNA in the absence of chemical substance (yeast gene YKR097W): 1.7 | The level of expressed mRNA in the presence of chemical substance/The level of expressed mRNA in the absence of chemical substance (yeast gene YLL041C, cells incubated two hours with the chemical substance): 1.2 | The level of expressed mRNA in the presence of chemical substance/The level of expressed mRNA in the absence of chemical substance (yeast gene YLR038C, cells incubated two hours with the chemical substance): 1.2 | The level of expressed mRNA in the presence of chemical substance/The level of expressed mRNA in the absence of chemical substance (yeast gene YLR044C, cells incubated two hours with the chemical substance): 1.5 | The level of expressed mRNA in the presence of chemical substance/The level of expressed mRNA in the absence of chemical substance (yeast gene YLR134W, cells incubated two hours with the chemical substance): 2.5 | The level of expressed mRNA in the presence of chemical substance/The level of expressed mRNA in the absence of chemical substance (yeast gene YLR258W, cells incubated two hours with the chemical substance): 1.8 | The level of expressed mRNA in the presence of chemical substance/The level of expressed mRNA in the absence of chemical substance (yeast gene YLR284C, cells incubated two hours with the chemical substance): 0.9 | The level of expressed mRNA in the presence of chemical substance/The level of expressed mRNA in the absence of chemical substance (yeast gene YLR295C, cells incubated two hours with the chemical substance, 25° C., YPD medium): 1.1 | The level of expressed mRNA in the presence of chemical substance/The level of expressed mRNA in the absence of chemical substance (yeast gene YLR304C, cells incubated two hours with the chemical substance): 1.9 | The level of expressed mRNA in the presence of chemical substance/The level of expressed mRNA in the absence of chemical substance (yeast gene YLR345W): 1.6 | The level of expressed mRNA in the presence of chemical substance/The level of expressed mRNA in the absence of chemical substance (yeast gene YLR354C, cells incubated two hours with the chemical substance): 1.5 | The level of expressed mRNA in the presence of chemical substance/The level of expressed mRNA in the absence of chemical substance (yeast gene YLR377C, cells incubated two hours with the chemical substance): 0.7 | The level of expressed mRNA in the presence of chemical substance/The level of expressed mRNA in the absence of chemical substance (yeast gene YLR395C, cells incubated two hours with the chemical substance): 0.4 | The level of expressed mRNA in the presence of chemical substance/The level of expressed mRNA in the absence of chemical substance (yeast gene YML054C): 1.8 | The level of expressed mRNA in the presence of chemical substance/The level of expressed mRNA in the absence of chemical substance (yeast gene YML087C): 0.9 | The level of expressed mRNA in the presence of chemical substance/The level of expressed mRNA in the absence of chemical substance (yeast gene YML100W): 2.8 | The level of expressed mRNA in the presence of chemical substance/The level of expressed mRNA in the absence of chemical substance (yeast gene YML120C, cells incubated two hours with the chemical substance): 0.6 | The level of expressed mRNA in the presence of chemical substance/The level of expressed mRNA in the absence of chemical substance (yeast gene YML125C): 1.3 | The level of expressed mRNA in the presence of chemical substance/The level of expressed mRNA in the absence of chemical substance (yeast gene YML129C, cells incubated two hours with the chemical substance): 1.7 | The level of expressed mRNA in the presence of chemical substance/The level of expressed mRNA in the absence of chemical substance (yeast gene YMR073C, cells incubated two hours with the chemical substance): 0.9 | The level of expressed mRNA in the presence of chemical substance/The level of expressed mRNA in the absence of chemical substance (yeast gene YMR089C): 1.2 | The level of expressed mRNA in the presence of chemical substance/The level of expressed mRNA in the absence of chemical substance (yeast gene YMR105C): 2.8 | The level of expressed mRNA in the presence of chemical substance/The level of expressed mRNA in the absence of chemical substance (yeast gene YMR118C): 2.0 | The level of expressed mRNA in the presence of chemical substance/The level of expressed mRNA in the absence of chemical substance (yeast gene YMR205C, cells incubated two hours with the chemical substance): 1.2 | The level of expressed mRNA in the presence of chemical substance/The level of expressed mRNA in the absence of chemical substance (yeast gene YMR261C, cells incubated two hours with the chemical substance): 0.6 | The level of expressed mRNA in the presence of chemical substance/The level of expressed mRNA in the absence of chemical substance (yeast gene YMR267W, cells incubated two hours with the chemical substance, 25° C., YPD medium): 1.4 | The level of expressed mRNA in the presence of chemical substance/The level of expressed mRNA in the absence of chemical substance (yeast gene YMR323W, cells incubated two hours with the chemical substance): 0.4 | The level of expressed mRNA in the presence of chemical substance/The level of expressed mRNA in the absence of chemical substance (yeast gene YNL071W): 1.3 | The level of expressed mRNA in the presence of chemical substance/The level of expressed mRNA in the absence of chemical substance (yeast gene YNL202W, cells incubated two hours with the chemical substance): 2.0 | The level of expressed mRNA in the presence of chemical substance/The level of expressed mRNA in the absence of chemical substance (yeast gene YNL237W): 4.6 | The level of expressed mRNA in the presence of chemical substance/The level of expressed mRNA in the absence of chemical substance (yeast gene YNL241C): 0.9 | The level of expressed mRNA in the presence of chemical substance/The level of expressed mRNA in the absence of chemical substance (yeast gene YNL331C): 1.8 | The level of expressed mRNA in the presence of chemical substance/The level of expressed mRNA in the absence of chemical substance (yeast gene YOL086C, cells incubated two hours with the chemical substance): 1.7 | The level of expressed mRNA in the presence of chemical substance/The level of expressed mRNA in the absence of chemical substance (yeast gene YOL165C): 1.7 | The level of expressed mRNA in the presence of chemical substance/The level of expressed mRNA in the absence of chemical substance (yeast gene YOR142W, cells incubated two hours with the chemical substance): 1.6 | The level of expressed mRNA in the presence of chemical substance/The level of expressed mRNA in the absence of chemical substance (yeast gene YOR178C, cells incubated two hours with the chemical substance): 2.7 | The level of expressed mRNA in the presence of chemical substance/The level of expressed mRNA in the absence of chemical substance (yeast gene YOR388C, cells incubated two hours with the chemical substance): 1.4 | The level of expressed mRNA in the presence of chemical substance/The level of expressed mRNA in the absence of chemical substance (yeast gene YPL031C, cells incubated two hours with the chemical substance): 1.8 | The level of expressed mRNA in the presence of chemical substance/The level of expressed mRNA in the absence of chemical substance (yeast gene YPL061W, cells incubated two hours with the chemical substance): 1.7 | The level of expressed mRNA in the presence of chemical substance/The level of expressed mRNA in the absence of chemical substance (yeast gene YPL088W): 7.1 | The level of expressed mRNA in the presence of chemical substance/The level of expressed mRNA in the absence of chemical substance (yeast gene YPL171C): 1.3 | The level of expressed mRNA in the presence of chemical substance/The level of expressed mRNA in the absence of chemical substance (yeast gene YPL240C): 1.2 | The level of expressed mRNA in the presence of chemical substance/The level of expressed mRNA in the absence of chemical substance (yeast gene YPL262W, cells incubated two hours with the chemical substance): 1.6 | The level of expressed mRNA in the presence of chemical substance/The level of expressed mRNA in the absence of chemical substance (yeast gene YPL275W, cells incubated two hours with the chemical substance): 1.0 | The level of expressed mRNA in the presence of chemical substance/The level of expressed mRNA in the absence of chemical substance (yeast gene YPL276W, cells incubated two hours with the chemical substance): 1.1 | The level of expressed mRNA in the presence of chemical substance/The level of expressed mRNA in the absence of chemical substance (yeast gene YPR048W, cells incubated two hours with the chemical substance): 0.6 | The level of expressed mRNA in the presence of chemical substance/The level of expressed mRNA in the absence of chemical substance (yeast gene YPR184W, cells incubated two hours with the chemical substance): 1.5
